From patent publication US20170027172A1, “USE OF SUBSTITUTE OXO TETRAHYDROQUINOLINE SULFONAMIDES OR SALTS THEREOF FOR RAISING STRESS TOLERANCE OF PLANTS” (BAYER CROPSCIENCE AKTIENGESELLSCHAFT, priority 2014, published 2017)

Molecular target: T1, phosphatase ABI1 via the co-regulator RCAR11/PYR1 (Arabidopsis thaliana, UniProt O49686+P49597)
T1 sequence (O49686 1-191): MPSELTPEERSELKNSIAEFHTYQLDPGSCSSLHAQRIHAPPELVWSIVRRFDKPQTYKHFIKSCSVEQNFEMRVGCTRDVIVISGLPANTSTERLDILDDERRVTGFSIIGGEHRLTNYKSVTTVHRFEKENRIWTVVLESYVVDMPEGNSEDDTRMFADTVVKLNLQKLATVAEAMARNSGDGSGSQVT
T1 sequence (P49597 1-434): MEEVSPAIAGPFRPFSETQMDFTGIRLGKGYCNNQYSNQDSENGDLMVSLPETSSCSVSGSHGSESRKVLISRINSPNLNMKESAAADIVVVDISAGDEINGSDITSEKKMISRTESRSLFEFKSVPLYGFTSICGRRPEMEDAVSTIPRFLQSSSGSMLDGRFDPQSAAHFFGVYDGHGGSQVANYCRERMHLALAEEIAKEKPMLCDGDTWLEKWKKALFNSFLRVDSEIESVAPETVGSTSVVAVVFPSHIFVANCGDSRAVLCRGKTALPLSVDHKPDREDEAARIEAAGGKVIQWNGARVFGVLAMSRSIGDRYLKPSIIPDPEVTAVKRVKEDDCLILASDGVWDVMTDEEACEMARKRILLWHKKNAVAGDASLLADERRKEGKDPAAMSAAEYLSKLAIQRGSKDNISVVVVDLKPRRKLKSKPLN
Assay: In vitro inhibition of the phosphatase ABI1 via the co-regulator RCAR11/PYR1, MUP dephosphorylation
Format: biochemical
Parameters: dose or concentration left out as unconfirmed
Conditions: in a solution of DMSO and water; fluorescence at 460 nm
Excerpt: Effects of the phytohormone abscisic acid (ABA) on the behavior of plants under abiotic stress and the mechanism of action of ABA are described in the literature (cf. Abrams et al., WO97/23441, Park et al. Science, 2009, 324, 1068; Grill et al. Science, 2009, 324, 1064; Tanokura et al. Biophysics, 2011, 7, 123; Schroeder et al. Plant J. 2010, 61, 290). Therefore, it is possible with the aid of a suitable in vitro test system to derive a correlation between the action of ABA and the stress response of a plant under abiotic stress. In the event of water deficiency (drought stress), plants form the phytohormone abscisic acid (ABA). This binds, along with a co-regulator (Regulatory Component of ABA-Receptor=RCAR according to Grill et al. Science, 2009, 324, 1064 or PYR/PYL according to Cutler et al. Science, 2009, 324, 1068), to a phosphatase (e.g. ABI1, a type 2C protein phosphatase, also abbreviated to PP2C) and inhibits its activity. As a result, a “downstream” kinase (e.g. SnRK2) is no longer dephosphorylated. This kinase, which is thus active, via phosphorylation of transcription factors (e.g. AREB/ABF, cf. Yoshida et al., 2010, 61, 672), switches on a genetic protection program to increase drought stress tolerance. The assay described hereinafter utilizes the inhibition of the phosphatase ABI1 via the co-regulator RCAR11/PYR1 aus Arabidopsis thaliana. For the determination of activity, the dephosphorylation of 4-methylumbelliferyl phosphate (MUP) was measured at 460 nm. The in vitro assay was conducted in Greiner 384-well PS microplates F-well, using two controls: a) 0.5% dimethyl sulfoxide (DMSO) and b) 5 μM abscisic acid (ABA). The assay described here was generally conducted with substance concentrations of the appropriate chemical test substances in a concentration range of 0.1 μM to 100 μM in a solution of DMSO and water. The substance solution thus obtained, if necessary, was stirred with esterase from porcine liver (EC 3.1.1.1) at room temperature for 3 h and centrifuged at 4000 rpm for 30 min. A total volume of 45 μl was introduced into each cavity of the microplate, having the following composition: • 1) 5 μl of substance solution, i.e. a) DMSO 5% or b) abscisic acid solution or c) the corresponding example compound of the general formula (I) dissolved in 5% DMSO. • 2) 20 μl of enzyme buffer mix, composed of a) 40% by vol. of enzyme buffer (10 mL contain equal proportions by volume of 500 mM Tris-HCl pH 8, 500 mM NaCl, 3.33 mM MnCl2, 40 mM dithiothreitol (DTT)), b) 4% by vol. of ABI1 dilution (protein stock solution was diluted so as to give, after addition, a final concentration in the assay of 0.15 μg ABI1/well), c) 4% by vol. of RCAR11 dilution (enzyme stock was diluted so as to give, on addition of the dilution to the enzyme buffer mix, a final concentration in the assay of 0.30 μg enzyme/well), d) 5% by vol. of Tween20 (1%), e) 47% by vol. H2O bi-dist. • 3) 20 μl of substrate mix, composed of a) 10% by vol. of 500 mM Tris-HCl pH8, b) 10% by vol. of 500 mM NaCl, c) 10% by vol. of 3.33 mM MnCl2, d) 5% by vol. of 25 mM MUP, 5% by vol. of Tween20 (1%), 60% by vol. of H2O bi-dist.
Enzyme buffer mix and substrate mix were made up 5 minutes prior to the addition and warmed to a temperature of 35° C. On completion of pipetting of all the solutions and on completion of mixing, the plate was incubated at 35° C. for 20 minutes. Finally, a relative fluorescence measurement was made at 35° C. with a BMG Labtech “POLARstar Optima” microplate reader using a 340/10 nm excitation filter and a 460 nm emission filter. The efficacy of the compounds of the general formula (I) is reported in the table which follows using abscisic acid […] as comparative substance (No. 37) according to the following classification: ++++ (inhibition≧90%), +++ (90%>inhibition≧70%), ++ (70%>inhibition≧50%), + (50%>inhibition≧30%). […]

SMILES | ABI1 inhibition
O=C1CCc2cc(NS(=O)(=O)Cc3cccc(Cl)c3)ccc2N1CC(F)F [A1-166] | ++ (70%>inhibition≧50%)
COC(=O)CN1C(=O)CCc2cc(NS(=O)(=O)Cc3cccc(C)c3)ccc21 [A50-153] | ++ (70%>inhibition≧50%)
Cc1ccc(S(=O)(=O)Nc2ccc3c(c2)C2(CCC2)CC(=O)N3CC2CC2)cc1 [J3-50, 4-Methyl-N-[1′-(cyclopropylmethyl)-2′-oxo-2′,3′-dihydro-1′H-spiro[cyclobutyl-1,4′-quinolin]-6′-yl]phenylsulfonamide] | + (50%>inhibition≧30%)
COC(=O)CN1C(=O)CCc2cc(NS(=O)(=O)Cc3ccc(Br)cc3)ccc21 [A50-172] | ++++ (inhibition≧90%)
N#Cc1ccc(CS(=O)(=O)Nc2ccc3c(c2)CCC(=O)N3CCC(F)(F)F)cc1 [A7-181] | ++++ (inhibition≧90%)
O=C1CCc2cc(NS(=O)(=O)Cc3ccc(C(F)(F)F)cc3)ccc2N1CC1CC1(Cl)Cl (stereo not shown) [A32-178, N-[1-(2′,2′-Dichlorocyclopropylmethyl)-2-oxo-1,2,3,4-tetrahydroquinolin-6-yl]-1-(4-trifluoromethylphenyl)methanesulfonamide] | ++ (70%>inhibition≧50%)
N#CCN1C(=O)CCc2cc(NS(=O)(=O)Cc3ccc(C(F)(F)F)cc3)ccc21 [A16-178] | ++ (70%>inhibition≧50%)
O=C1CCc2cc(NS(=O)(=O)Cc3ccccc3Cl)ccc2N1CC(F)(F)F [A2-168] | ++ (70%>inhibition≧50%)
COCCN1C(=O)CCc2cc(NS(=O)(=O)Cc3ccc(C(F)(F)F)cc3)ccc21 [A38-178] | ++++ (inhibition≧90%)
COCN1C(=O)CCc2cc(NS(=O)(=O)Cc3ccc(Cl)cc3)ccc21 [A49-165] | ++++ (inhibition≧90%)
O=C1CCc2cc(NS(=O)(=O)Cc3ccc(Cl)cc3)ccc2N1CC1CCCC1 [A22-165] | +++ (90%>inhibition≧70%)
O=C1CCc2cc(NS(=O)(=O)Cc3ccc([N+](=O)[O-])cc3)ccc2N1CC1CC1 [A19-175] | ++++ (inhibition≧90%)
N#Cc1ccc(CS(=O)(=O)Nc2ccc3c(c2)CCC(=O)N3CC(F)(F)F)cc1 [A2-181] | ++++ (inhibition≧90%)
CC(C#N)CN1C(=O)CCc2cc(NS(=O)(=O)Cc3ccc(Cl)cc3)ccc21 (stereo not shown) [A47-165] | ++++ (inhibition≧90%)
O=C1CCc2cc(NS(=O)(=O)Cc3ccc(Cl)cc3)ccc2N1CC1CCC1 [A21-165] | ++++ (inhibition≧90%)
O=C1CCc2cc(NS(=O)(=O)Cc3ccc(F)cc3)ccc2N1CC1CCC1 [A21-158] | ++++ (inhibition≧90%)
O=C1CCc2cc(NS(=O)(=O)Cc3ccc(Cl)cc3)ccc2N1CC1CC1 [A19-165] | ++++ (inhibition≧90%)
N#Cc1ccc(CS(=O)(=O)Nc2ccc3c(c2)CCC(=O)N3CC(F)(F)C(F)(F)F)cc1 [A10-181] | ++++ (inhibition≧90%)
Cc1ccc(CS(=O)(=O)Nc2ccc3c(c2)CCC(=O)N3CCC(F)(F)F)cc1 [A7-152] | ++++ (inhibition≧90%)
N#Cc1ccc(CS(=O)(=O)Nc2ccc3c(c2)CCC(=O)N3CC(F)F)cc1 [A1-181] | ++++ (inhibition≧90%)

SMILES | ABI1 inhibition
COC(=O)CN1C(=O)CCc2cc(NS(=O)(=O)Cc3ccccc3F)ccc21 [A50-161] | +++ (90%>inhibition≧70%)
O=C1CCc2cc(NS(=O)(=O)Cc3ccc(Cl)cc3)ccc2N1CC(F)(F)F [A2-165] | ++++ (inhibition≧90%)
N#Cc1ccc(CS(=O)(=O)Nc2ccc3c(c2)CCC(=O)N3CC2CC2(Cl)Cl)cc1 (stereo not shown) [A32-181] | +++ (90%>inhibition≧70%)
O=C1CCc2cc(NS(=O)(=O)Cc3ccccc3)ccc2N1CC(F)(F)F [A2-151] | ++++ (inhibition≧90%)
O=C1CCc2cc(NS(=O)(=O)Cc3ccc(C(F)(F)F)cc3)ccc2N1CC(F)F [A1-178] | ++++ (inhibition≧90%)
O=C1CCc2cc(NS(=O)(=O)Cc3ccc(C(F)(F)F)cc3)ccc2N1CC1CCC1 [A21-178] | +++ (90%>inhibition≧70%)
CCc1ccc(S(=O)(=O)Nc2ccc3c(c2)CCC(=O)N3CC2CCC2)cc1 [A21-601] | ++++ (inhibition≧90%)
O=C1CCc2cc(NS(=O)(=O)Cc3ccc(Br)cc3)ccc2N1CC(F)(F)F [A2-172] | ++++ (inhibition≧90%)
O=C1CCc2cc(NS(=O)(=O)Cc3cccc(C(F)(F)F)c3)ccc2N1CC(F)(F)F [A2-179] | +++ (90%>inhibition≧70%)
CCOCCN1C(=O)CCc2cc(NS(=O)(=O)Cc3ccc(C#N)cc3)ccc21 [A39-181] | +++ (90%>inhibition≧70%)
O=C1CCc2cc(NS(=O)(=O)Cc3ccc(Cl)cc3)ccc2N1CC(F)(F)C(F)(F)F [A10-165] | ++++ (inhibition≧90%)
Cc1ccc(CS(=O)(=O)Nc2ccc3c(c2)CCC(=O)N3CC(F)(F)F)cc1 [A2-152] | ++++ (inhibition≧90%)
CC1=CC(=O)CC(C)(C)[C@@]1(O)/C=C/C(C)=C\C(=O)O [abscisic acid, reference compound] | ++++ (inhibition≧90%)
O=C1CCc2cc(NS(=O)(=O)Cc3ccc(F)cc3)ccc2N1CC(F)(F)F [A2-158] | ++++ (inhibition≧90%)
CC(C)(C)c1ccc(CS(=O)(=O)Nc2ccc3c(c2)CCC(=O)N3CC2CC2)cc1 [A19-332] | ++++ (inhibition≧90%)
N#Cc1ccc(CS(=O)(=O)Nc2ccc3c(c2)CCC(=O)N3CC2CCC2)cc1 [A21-181, N-[1-(Cyclobutylmethyl)-2-oxo-1,2,3,4-tetrahydroquinolin-6-yl]-1-(4-cyanophenyl)methanesulfonamide] | ++++ (inhibition≧90%)
COC(=O)CCN1C(=O)CCc2cc(NS(=O)(=O)Cc3cccc(C(F)(F)F)c3)ccc21 [A51-179] | ++ (70%>inhibition≧50%)
Cc1cccc(CS(=O)(=O)Nc2ccc3c(c2)CCC(=O)N3CC2CC2)c1 [A19-153, N-[1-(Cyclopropylmethyl)-2-oxo-1,2,3,4-tetrahydroquinolin-6-yl]-1-(3-methylphenyl)methanesulfonamide] | +++ (90%>inhibition≧70%)
Cc1ccc(CS(=O)(=O)Nc2ccc3c(c2)CCC(=O)N3CC#N)cc1 [A16-152] | ++ (70%>inhibition≧50%)
COC(=O)CN1C(=O)CCc2cc(NS(=O)(=O)CCc3ccc(Cl)cc3)ccc21 [A50-291] | ++ (70%>inhibition≧50%)
